How the values were obtained:
[1] = system: myelin sheath marker (MAG) in prefrontal cortexes of mice after alcohol intake and alcohol abstinence; experiment: Immunohistochemical staining of prefrontal cortex with myelin sheath marker (MAG), myelin sheath formation enhancing effect; format: in vivo; details: clemastine 10 mg/kg orally every day after end of EtOH administration, ImageJ, FIG. 8(b), 8(c)
Protocol: Mice (4 mice for each group) were administered EtOH in the same manner as in Examples 1 and 2. Control mice (4 mice for each group) were orally administered sterile water in the same amount as that in the mice administered EtOH. […] Frozen slices of prefrontal cortexes and hippocampuses of the mice prepared were heated in a 10 mM citrate buffer solution (pH 6.0) with a microwave oven for 5 minutes. After washed with PBS, the slices were subjected to blocking with 5% normal horse serum (Cat #S-2000, Vector Laboratories, Inc., Burlingame, CA, USA) in PBST for 1 hour. After that, the slices were caused to react with one of primary antibodies at 4° C. overnight. After washed with PBST, the slices were caused to react with a secondary antibody (1:2,000) at room temperature for 3 hours. The primary antibodies used were a mouse anti-CC1 antibody (1:500; Cat #MABF850, Millipore) and a goat anti-PDGFRα antibody (1:200; Cat #AF1062, R&D Systems Inc.)

[2] = system: mice after alcohol intake and alcohol abstinence; experiment: Novelty suppressed feeding test (NSF) in mice after alcohol intake and alcohol abstinence; format: in vivo, C57BL/6J mice; details: clemastine 10 mg/kg orally every day from end of EtOH administration to final day of behavioral tests; EtOH+clemastine group vs EtOH group; FIG. 5(b)
Protocol: (§1) Male C57BL/6J mice at the age of 4 weeks (P28) were used. The mice were accommodated in a plastic cage and maintained at a light-dark cycle of 12 hours (lighting at 8:00 A.M.) with ad libitum access to feed and water.
(§2) Sixteen mice were orally administered EtOH (3.0 g/kg; diluted to 25% with sterile water) intermittently from P28 to P45 for 10 days in total (once a day) according to the schedule of FIG. 1(a). Sixteen control mice were orally administered sterile water in the same amount as that in the mice administered EtOH.
(§3) All the behavioral experiments were performed between 10:00 A.M. and 6:00 P.M. To obtain an indicator of sociality, a social interaction test was conducted. To obtain an indicator of anxiety behavior, a marble-burying behavior test and a novelty suppressed feeding test were conducted. To obtain an indicator of cognitive function, a novel object recognition test was conducted. To reduce influences from previous experiments, the social interaction test, the marble-burying behavior test, the novelty suppressed feeding test, and the novel object recognition test were conducted in the stated order. […]
The novelty suppressed feeding test was conducted by a method in conformity with a previous report (Lu Q et al., Behav Brain Res. 2019 Oct. 17; 372: 112053). […] A latency time taken for feed intake was recorded. […]

[3] = system: mice after alcohol intake and alcohol abstinence; experiment: Marble-burying behavior test (MB) in mice after alcohol intake and alcohol abstinence; format: in vivo, C57BL/6J mice; details: clemastine 10 mg/kg orally every day from end of EtOH administration to final day of behavioral tests; EtOH+clemastine group vs EtOH group; FIG. 5(b)
Protocol: as §1, §2, §3
The marble-burying behavior test was conducted by a method in conformity with a previous report (Alkam T et al., Behav Brain Res. 2013 Feb. 15; 239: 80-9). […] When ⅔ of the surface area of a marble was covered with the sawdust, the marble was counted as being buried. […]

[4] = system: mice after alcohol intake and alcohol abstinence; experiment: Social interaction test (SIT) in mice after alcohol intake and alcohol abstinence; format: in vivo, C57BL/6J mice; details: clemastine 10 mg/kg orally every day from end of EtOH administration to final day of behavioral tests; EtOH+clemastine group vs EtOH group; FIG. 5(b)
Protocol: as §1, §2
All the behavioral experiments were performed between 10:00 A.M. and 6:00 P.M. To obtain an indicator of sociality, a social interaction test was conducted. To obtain an indicator of anxiety behavior, a marble-burying behavior test and a novelty suppressed feeding test were conducted. To obtain an indicator of cognitive function, a novel object recognition test was conducted. […]
The social interaction test was conducted by a method in conformity with a previous report (Mouri A et al., J Neurosci. 2012 Mar. 28; 32(13): 4562-80). […] A time length of a social interaction (e.g., smelling each other, grooming each other, pursuing, mounting, or crawling) was recorded. […]

CN1CCC[C@@H]1CCO[C@](C)(c1ccccc1)c1ccc(Cl)cc1 [clemastine]
significantly remitted: myelin sheath abnormality in the prefrontal cortexes (MAG signal intensity) [1] | anxiety-like behavior (novelty suppressed feeding test) [2] | anxiety-like behavior (marble-burying behavior test) [3] | social interaction reduction (social interaction test) [4]

Reference: patent publication US20250164463A1, “SCREENING METHOD AND THERAPEUTIC AGENT FOR MENTAL DISORDER” (Fujita Health University, priority 2022, published 2025)
